Experimental data reported in patent publication US9770026B2, “Substituted pyrimidine compound and uses thereof” (Shenyang Sinochem Agrochemicals R&D Co., Ltd., priority 2012, dated 2017).

Key:
[1] = tested on: cucumber gray mold; assay: fungicidal activity in vitro (inhibition rate) against cucumber gray mold; type: cell-based; details: 25 ppm, in vitro; read-out: inhibition rate against cucumber gray mold
[2] = tested on: Diamond back moth; assay: insecticidal activity against diamond back moth, airbrush spray; type: in vivo; details: 72 h; for pest or weed control at 600 µg/mL: 600 mg/L
In short: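 Airbrush leaf-disc spray test: both faces of 2 cm cabbage discs received 0.5 ml of test solution at 0.7 kg/cm^2. Solutions were made in acetone:methanol (1:1) and brought to concentration with 0.1% Tween 80 in water. Ten second-instar larvae per disc, triplicates, were held at 25° C and 60˜70% R.H., with mortality recorded at 72 hrs.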

[3] = tested on: armyworm; assay: bioactivity test against armyworm, airbrush spray; type: in vivo; details: 72 h; for pest or weed control at 600 µg/mL: 600 mg/L, read-out: Insecticidal activity against armyworm (%)
[4] = tested on: Green peach aphids (Myzus Persicae Sulzer); assay: bioactivity test against green peach aphid, airbrush foliar spray; type: in vivo; details: Myzus persicae, foliar, 48 h; for pest or weed control at 10 µg/mL: 10 mg/L; for pest or weed control at 10 µg/mL / pest or weed control at 100 µg/mL / pest or weed control at 600 µg/mL: contrastive test, read-out: Insecticidal activity against peach aphid (%); for pest or weed control at 100 µg/mL: 100 mg/L; for pest or weed control at 600 µg/mL: 600 mg/L
In short: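 Aphids (15-30 per cabbage leaf disc) on moist filter paper were airbrush-sprayed at 10 psi, 0.5 mL, with compound from acetone:methanol (1:1) diluted in water with 0.1% tween 80. Held at 25±1 C, 60±5% RH; survivors counted after 48 hrs to give death rates.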

[5] = tested on: carmine spider mite; assay: bioactivity test against carmine spider mite, airbrush spray; type: in vivo; details: Tetranychus cinnabarinus, 72 h; for pest or weed control at 600 µg/mL: 600 mg/L, contrastive test, read-out: Insecticidal activity against carmine spider mite (% )
In short: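 Broadbean seedlings infested with adult mites were sprayed with compound (acetone/methanol stock diluted in 0.1% Tween 80 water) by airbrush at 0.7 kg/cm^2, 0.5 ml. Three replicates were run. Mortality was scored after 72 hrs.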

[6] = tested on: corn rust; assay: protectant activity in vivo against corn rust; details: Zea mays, 168 h; for pest or weed control at 400 µg/mL: read-out: control effect against corn rust (%), 400 mg/L; for pest or weed control at 6.25 µg/mL: read-out: control effect against corn rust (%), 6.25 mg/L; for pest or weed control at 25 µg/mL: read-out: control effect against corn rust (%), 25 mg/L; for pest or weed control at 100 µg/mL: read-out: control effect against corn rust (%), 100 mg/L
[7] = tested on: wheat powdery mildew; assay: protectant activity in vivo against wheat powdery mildew; details: Triticum aestivum, 168 h; for pest or weed control at 400 µg/mL: read-out: control effect against wheat powdery mildew (%), 400 mg/L; for pest or weed control at 6.25 µg/mL: read-out: control effect against wheat powdery mildew (%), 6.25 mg/L; for pest or weed control at 25 µg/mL: read-out: control effect against wheat powdery mildew (%), 25 mg/L; for pest or weed control at 100 µg/mL: read-out: control effect against wheat powdery mildew (%), 100 mg/L
[8] = tested on: cucumber downy mildew; assay: protectant activity in vivo against cucumber downy mildew; details: Cucumis sativus, 168 h; for pest or weed control at 25 µg/mL: read-out: control effect against cucumber downy mildew (%), 25 mg/L; for pest or weed control at 25 µg/mL / pest or weed control at 50 µg/mL / pest or weed control at 100 µg/mL / pest or weed control at 400 µg/mL: protectant activity; for pest or weed control at 50 µg/mL: read-out: control effect against cucumber downy mildew (%), 50 mg/L; for pest or weed control at 100 µg/mL: read-out: control effect against cucumber downy mildew (%), 100 mg/L; for pest or weed control at 400 µg/mL: read-out: control effect against cucumber downy mildew (%), 400 mg/L

Row | SMILES | inhibition at 25 ppm [1] | pest or weed control at 600 µg/mL [2] | pest or weed control at 600 µg/mL [3] | pest or weed control at 10 µg/mL [4] | pest or weed control at 100 µg/mL [4] | pest or weed control at 600 µg/mL [4] | pest or weed control at 600 µg/mL [5] | pest or weed control at 400 µg/mL ([6]; protectant activity) | pest or weed control at 400 µg/mL ([7]; protectant activity) | pest or weed control at 400 µg/mL [8] | pest or weed control at 6.25 µg/mL ([6]; protectant activity) | pest or weed control at 25 µg/mL ([6]; protectant activity) | pest or weed control at 100 µg/mL ([6]; protectant activity) | pest or weed control at 6.25 µg/mL ([7]; protectant activity) | pest or weed control at 25 µg/mL ([7]; protectant activity) | pest or weed control at 100 µg/mL ([7]; protectant activity) | other results
1 | Cc1nc(Cl)cc(NCCc2ccc(Oc3ccc(C(F)(F)F)cn3)cc2)n1 [CK67, reference compound] | 0% | 14% | 0% | 0% | 54% | 86% | 61% | 0% | 0% | 100% | – | – | – | – | – | – | pest or weed control at 25 µg/mL [8]: 0%; pest or weed control at 50 µg/mL [8]: 20%; pest or weed control at 100 µg/mL [8]: 60%
2 | Cc1nc(Cl)cc(NCCc2ccc(Oc3ncc(C(F)(F)F)cc3Cl)cc2)n1 [CK68, reference compound] | 0% | 14% | 0% | – | – | 0% | 4% | 0% | 0% | 0% | – | – | – | – | – | – | –
3 | FC(F)(F)c1cnc(Oc2ccc(CCNc3cc(Cl)ncn3)cc2)c(Cl)c1 [CK70, reference compound] | 0% | 0% | 0% | 0% | 0% | 81% | 13% | 100% | 98% | 100% | 0% | 10% | 30% | 0% | 0% | 0% | pest or weed control at 25 µg/mL [8]: 0%; pest or weed control at 50 µg/mL [8]: 30%; pest or weed control at 100 µg/mL [8]: 60%
4 | CCOC(=O)c1ccc(Oc2ccc(CCNc3cc(Cl)ncn3)cc2)nc1 [CK74, reference compound] | 0% | 0% | 0% | 26% | 100% | 100% | 0% | 100% | 0% | 50% | 85% | 90% | 100% | – | – | – | –
5 | CCOC(=O)c1ccc(Oc2ccc(CCNc3nc(Cl)ncc3Cl)cc2)nc1 [CK75, reference compound] | 0% | 0% | 0% | 0% | 0% | 100% | 0% | 0% | 0% | 60% | – | – | – | – | – | – | –
6 | CCOC(=O)c1ccc(Oc2ccc(CCNc3cc(Cl)nc(C)n3)cc2)nc1 [CK76, reference compound] | 0% | 0% | 0% | – | – | 52% | 41% | 70% | 75% | 0% | – | – | – | – | – | – | –
7 | COC(=O)c1ccc(Oc2ccc(CCNc3cc(Cl)ncn3)cc2)nc1 [CK77, reference compound] | 0% | 0% | 0% | – | – | 72% | 56% | 100% | 100% | 0% | 0% | 40% | 60% | 70% | 80% | 100% | –
8 | COC(=O)c1ccc(Oc2ccc(CCNc3nc(Cl)ncc3Cl)cc2)nc1 [CK78, reference compound] | 0% | 0% | 0% | – | – | 0% | 17% | 0% | 0% | 0% | – | – | – | – | – | – | –
9 | COC(=O)c1ccc(Oc2ccc(CCNc3cc(Cl)nc(C)n3)cc2)nc1 [CK79, reference compound] | 0% | 0% | 0% | 0% | 16% | 100% | 27% | 0% | 0% | 85% | – | – | – | – | – | – | –
10 | FC(F)(F)c1cccnc1Oc1ccc(CCNc2cc(Cl)ncn2)cc1 [CK80, reference compound] | 0% | 0% | 0% | 16% | 40% | 87% | 6% | 100% | 100% | 85% | 0% | 20% | 85% | 0% | 0% | 80% | –
11 | CCc1ncnc(NCCc2ccc(Oc3cc(Cl)cc(Cl)c3)cc2)c1Cl [II-303] | 100% | – | – | – | – | – | – | 100% | 100% | – | 100% | 100% | 100% | 90% | 100% | 100% | pest or weed control at 600 ppm ([2]; 600 ppm, mortality after 72 hrs, read-out: control (test results against diamond back moth)): 80 to 99%; pest or weed control at 600 ppm ([3]; 600 ppm, mortality after 72 h): 80 to 99%; pest or weed control at 100 ppm ([4]; 100 ppm, death rate after 48 hrs): 100%; pest or weed control at 600 ppm ([4]; 600 ppm, death rate after 48 hrs): 100%; pest or weed control at 600 ppm ([5]; 600 ppm, mortality after 72 hrs): 100%; pest or weed control at 0.4 µg/mL ([6]; read-out: control effect against corn rust (%), 0.4 mg/L, protectant activity): 50%; pest or weed control at 1.6 µg/mL ([6]; read-out: control effect against corn rust (%), 1.6 mg/L, protectant activity): 80%; pest or weed control at 6.25 ppm ([6]; read-out: protectant activity against corn rust in vivo, 6.25 ppm): 100%; pest or weed control at 25 ppm ([6]; read-out: protectant activity against corn rust in vivo, 25 ppm): 100%; pest or weed control at 100 ppm ([6]; read-out: protectant activity against corn rust in vivo, 100 ppm): 100%; pest or weed control at 400 ppm ([6]; read-out: protectant activity against corn rust in vivo, 400 ppm): 100%; pest or weed control at 0.4 µg/mL ([7]; read-out: control effect against wheat powdery mildew (%), 0.4 mg/L, protectant activity): 25%; pest or weed control at 1.6 µg/mL ([7]; read-out: control effect against wheat powdery mildew (%), 1.6 mg/L, protectant activity): 80%; pest or weed control at 6.25 ppm ([7]; read-out: protectant activity against wheat powdery mildew in vivo, 6.25 ppm): 80 to 99%; pest or weed control at 25 ppm ([7]; read-out: protectant activity against wheat powdery mildew in vivo, 25 ppm): 100%; pest or weed control at 100 ppm ([7]; read-out: protectant activity against wheat powdery mildew in vivo, 100 ppm): 100%; pest or weed control at 400 ppm ([7]; read-out: protectant activity against wheat powdery mildew in vivo, 400 ppm): 100%; pest or weed control at 100 ppm ([8]; read-out: protectant activity against cucumber downy mildew in vivo, 100 ppm): 80 to 99%; pest or weed control at 400 ppm ([8]; read-out: protectant activity against cucumber downy mildew in vivo, 400 ppm): 100%
